What all share (experiment): KINOMEscan (ScanMAX) kinase profiling
Assay type in all cases: binding

Experiment [1] addresses T1, panel of 468 kinases (Homo sapiens, UniProt P11309).
T1 construct: purchased KINOMEscan (ScanMAX) service
To be noted: PIM1; 1 μM; read-out: % control.

Experiment [2] deals with T2, panel of 468 kinases (Homo sapiens, UniProt P24723).
T2 construct: purchased KINOMEscan (ScanMAX) service
As to conditions: PRKCH; 1 μM; read-out: % control.

Experiment [3] concerns the target T3, panel of 468 kinases (Homo sapiens, UniProt P54753).
T3 construct: purchased KINOMEscan (ScanMAX) service
T3 sequence (P54753 34-998): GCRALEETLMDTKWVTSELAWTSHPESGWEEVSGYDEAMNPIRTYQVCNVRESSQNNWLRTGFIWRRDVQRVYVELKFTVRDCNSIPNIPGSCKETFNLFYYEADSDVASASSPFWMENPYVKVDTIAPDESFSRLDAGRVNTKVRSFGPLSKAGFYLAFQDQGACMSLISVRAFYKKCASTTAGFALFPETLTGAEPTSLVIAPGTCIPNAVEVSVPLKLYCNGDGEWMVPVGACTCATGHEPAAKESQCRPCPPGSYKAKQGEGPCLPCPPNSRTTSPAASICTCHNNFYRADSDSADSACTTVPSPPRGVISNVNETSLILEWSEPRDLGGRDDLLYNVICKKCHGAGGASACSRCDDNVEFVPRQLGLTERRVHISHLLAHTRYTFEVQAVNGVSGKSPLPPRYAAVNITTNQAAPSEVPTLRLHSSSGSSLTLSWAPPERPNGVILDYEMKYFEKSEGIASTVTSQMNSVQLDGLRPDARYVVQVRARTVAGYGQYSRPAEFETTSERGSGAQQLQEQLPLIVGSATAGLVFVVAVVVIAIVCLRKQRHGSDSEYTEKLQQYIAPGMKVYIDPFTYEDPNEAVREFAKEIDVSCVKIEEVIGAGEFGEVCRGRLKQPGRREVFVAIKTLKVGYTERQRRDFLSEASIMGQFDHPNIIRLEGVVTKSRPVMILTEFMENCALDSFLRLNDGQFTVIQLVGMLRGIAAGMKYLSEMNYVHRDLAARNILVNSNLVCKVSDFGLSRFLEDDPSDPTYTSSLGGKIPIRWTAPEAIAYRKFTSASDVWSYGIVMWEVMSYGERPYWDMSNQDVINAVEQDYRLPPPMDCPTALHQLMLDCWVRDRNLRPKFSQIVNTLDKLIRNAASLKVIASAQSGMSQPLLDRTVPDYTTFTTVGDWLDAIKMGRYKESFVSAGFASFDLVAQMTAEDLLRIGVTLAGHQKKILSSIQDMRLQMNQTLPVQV
As to conditions: EPHB3; 1 μM; read-out: % control.

The target in experiment [4] is T4, panel of 468 kinases (Homo sapiens, UniProt Q04771).
T4 construct: purchased KINOMEscan (ScanMAX) service
T4 sequence (Q04771 21-509): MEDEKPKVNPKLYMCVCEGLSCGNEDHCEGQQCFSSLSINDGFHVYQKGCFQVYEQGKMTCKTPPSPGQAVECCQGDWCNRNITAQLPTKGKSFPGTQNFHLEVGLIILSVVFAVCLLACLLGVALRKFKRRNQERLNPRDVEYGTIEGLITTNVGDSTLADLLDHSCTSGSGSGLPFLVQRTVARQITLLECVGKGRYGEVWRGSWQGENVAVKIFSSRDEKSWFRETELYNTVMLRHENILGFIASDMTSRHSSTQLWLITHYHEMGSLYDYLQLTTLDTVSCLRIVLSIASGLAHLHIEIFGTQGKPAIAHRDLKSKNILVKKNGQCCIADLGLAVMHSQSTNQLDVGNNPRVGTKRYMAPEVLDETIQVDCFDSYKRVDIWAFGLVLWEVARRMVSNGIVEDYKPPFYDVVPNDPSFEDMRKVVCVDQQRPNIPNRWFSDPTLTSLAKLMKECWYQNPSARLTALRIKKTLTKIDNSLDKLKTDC
As to conditions: ACVR1; 1 μM; read-out: % control.

The target in experiment [5] is T5, panel of 468 kinases (Homo sapiens, UniProt Q13705).
T5 construct: purchased KINOMEscan (ScanMAX) service
T5 sequence (Q13705 19-512): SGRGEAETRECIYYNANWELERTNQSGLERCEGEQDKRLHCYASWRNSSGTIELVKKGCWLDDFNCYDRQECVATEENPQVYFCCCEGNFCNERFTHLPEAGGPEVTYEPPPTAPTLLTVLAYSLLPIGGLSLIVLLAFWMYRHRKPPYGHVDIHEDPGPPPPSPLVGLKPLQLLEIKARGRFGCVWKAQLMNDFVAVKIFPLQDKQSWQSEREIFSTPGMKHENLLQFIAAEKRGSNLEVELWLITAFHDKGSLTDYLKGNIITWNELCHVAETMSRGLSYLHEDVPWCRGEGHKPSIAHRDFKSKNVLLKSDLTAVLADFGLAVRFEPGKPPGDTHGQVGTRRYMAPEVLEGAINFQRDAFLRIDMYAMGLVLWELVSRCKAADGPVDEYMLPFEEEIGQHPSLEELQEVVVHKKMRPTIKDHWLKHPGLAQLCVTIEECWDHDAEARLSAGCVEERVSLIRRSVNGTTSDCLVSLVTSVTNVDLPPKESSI
To be noted: ACVR2B; 1 μM; read-out: % control.

For experiment [6], the target named is T6, panel of 468 kinases (Homo sapiens, UniProt Q9UPE1).
T6 construct: purchased KINOMEscan (ScanMAX) service
T6 sequence (Q9UPE1 whole entry): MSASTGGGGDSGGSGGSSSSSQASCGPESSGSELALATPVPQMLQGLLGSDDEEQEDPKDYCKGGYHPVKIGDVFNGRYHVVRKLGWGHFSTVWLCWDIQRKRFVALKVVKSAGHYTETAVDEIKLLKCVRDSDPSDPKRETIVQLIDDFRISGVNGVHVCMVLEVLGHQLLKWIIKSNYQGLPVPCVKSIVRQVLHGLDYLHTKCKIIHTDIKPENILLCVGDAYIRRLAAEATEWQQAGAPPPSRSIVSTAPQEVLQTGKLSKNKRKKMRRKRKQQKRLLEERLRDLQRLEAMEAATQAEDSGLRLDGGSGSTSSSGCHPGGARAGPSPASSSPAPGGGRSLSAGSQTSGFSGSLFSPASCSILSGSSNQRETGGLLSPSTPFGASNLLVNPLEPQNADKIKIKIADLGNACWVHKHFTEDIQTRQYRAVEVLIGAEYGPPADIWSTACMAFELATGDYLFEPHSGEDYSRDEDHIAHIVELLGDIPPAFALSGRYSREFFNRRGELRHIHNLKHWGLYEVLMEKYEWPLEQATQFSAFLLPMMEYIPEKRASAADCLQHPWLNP
As to conditions: SRPK3; 1 μM; read-out: % control.

In experiment [7] the target is T7, panel of 468 kinases (Homo sapiens, UniProt Q9UQM7).
T7 construct: purchased KINOMEscan (ScanMAX) service
T7 sequence (Q9UQM7 whole entry): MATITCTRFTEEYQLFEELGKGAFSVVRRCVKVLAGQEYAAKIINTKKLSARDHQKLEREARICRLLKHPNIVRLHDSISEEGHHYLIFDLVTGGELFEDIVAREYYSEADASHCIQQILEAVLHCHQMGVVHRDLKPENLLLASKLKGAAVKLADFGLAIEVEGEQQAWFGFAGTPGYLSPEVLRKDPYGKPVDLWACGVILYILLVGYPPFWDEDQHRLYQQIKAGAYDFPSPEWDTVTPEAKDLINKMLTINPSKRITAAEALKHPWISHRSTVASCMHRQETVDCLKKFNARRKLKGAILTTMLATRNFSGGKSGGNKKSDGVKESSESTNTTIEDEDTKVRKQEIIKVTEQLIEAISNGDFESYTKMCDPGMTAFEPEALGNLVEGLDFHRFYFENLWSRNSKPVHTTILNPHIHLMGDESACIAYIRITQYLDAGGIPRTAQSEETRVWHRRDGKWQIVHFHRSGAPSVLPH
To be noted: CAMK2A; 1 μM; read-out: % control.

Drawing on US12479847B2 (DANA-FARBER CANCER INSTITUTE, INC., priority 2019, dated 2025), this text covers remaining binding for three molecules.

T1 sequence (P11309 whole entry): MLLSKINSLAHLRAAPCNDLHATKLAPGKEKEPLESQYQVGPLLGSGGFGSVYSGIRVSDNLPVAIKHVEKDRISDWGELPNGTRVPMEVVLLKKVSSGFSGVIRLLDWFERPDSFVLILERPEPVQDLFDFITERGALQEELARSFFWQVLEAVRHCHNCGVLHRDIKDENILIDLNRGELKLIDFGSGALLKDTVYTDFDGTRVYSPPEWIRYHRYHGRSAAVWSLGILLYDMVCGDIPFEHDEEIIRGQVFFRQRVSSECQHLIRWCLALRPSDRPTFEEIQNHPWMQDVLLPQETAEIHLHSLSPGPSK
T2 sequence (P24723 whole entry): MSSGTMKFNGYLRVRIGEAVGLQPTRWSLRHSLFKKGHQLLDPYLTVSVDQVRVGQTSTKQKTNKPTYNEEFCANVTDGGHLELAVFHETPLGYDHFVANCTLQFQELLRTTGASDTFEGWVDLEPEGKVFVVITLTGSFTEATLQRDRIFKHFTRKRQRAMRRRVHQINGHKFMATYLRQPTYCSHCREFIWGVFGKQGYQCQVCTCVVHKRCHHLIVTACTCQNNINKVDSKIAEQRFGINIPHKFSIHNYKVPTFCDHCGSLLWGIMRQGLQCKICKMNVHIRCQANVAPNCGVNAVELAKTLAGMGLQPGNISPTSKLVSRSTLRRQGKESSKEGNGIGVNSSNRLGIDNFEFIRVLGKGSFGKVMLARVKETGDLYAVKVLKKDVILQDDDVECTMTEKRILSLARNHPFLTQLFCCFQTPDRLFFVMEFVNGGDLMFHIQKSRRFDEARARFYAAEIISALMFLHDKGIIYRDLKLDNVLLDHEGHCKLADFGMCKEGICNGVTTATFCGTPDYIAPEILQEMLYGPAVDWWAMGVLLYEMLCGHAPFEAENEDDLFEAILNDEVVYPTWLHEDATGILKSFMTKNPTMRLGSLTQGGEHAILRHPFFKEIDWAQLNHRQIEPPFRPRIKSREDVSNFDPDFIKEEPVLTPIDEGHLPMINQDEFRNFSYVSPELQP

As to `CNc1nc(Nc2ccc(S(=O)(=O)N3CCC(N4CCOCC4)CC3)cc2OC)nc2[nH]cc(Cl)c12` [Compound 12, 5-chloro-N2-(2-methoxy-4-((4-morpholinopiperidin-1-yl)sulfonyl)phenyl)-N4-methyl-7H-pyrrolo[2,3-d]pyrimidine-2,4-diamine], the remaining binding at 1 µM at panel of 468 kinases [1] was determined as 100%; at panel of 468 kinases [2] it was 97%; on panel of 468 kinases [3] it was 100%; at panel of 468 kinases [4], 100%; at panel of 468 kinases [5], 79%; at panel of 468 kinases [6], 99%. Also, the remaining binding at 1 µM at panel of 468 kinases [7] is 100%.

In the case of `CNc1nc(Nc2ccc(P3(=O)CCN(C4CCOCC4)CC3)cc2OC)nc2[nH]cc(Cl)c12` [Compound 77, 4-(4-((5-chloro-4-(methylamino)-7H-pyrrolo[2,3-d]pyrimidin-2-yl)amino)-3-methoxyphenyl)-1-(tetrahydro-2H-pyran-4-yl)-1,4-azaphosphinane 4-oxide], the remaining binding at 1 µM was determined as 100% on panel of 468 kinases [1]; 100% on panel of 468 kinases [2]; 100% on panel of 468 kinases [3]; 100% at panel of 468 kinases [4]; 73% on panel of 468 kinases [5]; 88% on panel of 468 kinases [6]. The remaining binding at 1 µM on panel of 468 kinases [7] worked out at 88%.

Turning to `CNc1nc(Nc2ccc(C(=O)N3CCC(N4CCOCC4)CC3)c3c2OCO3)nc2[nH]cc(Cl)c12` [Compound 75, (7-((5-chloro-4-(methylamino)-7H-pyrrolo[2,3-d]pyrimidin-2-yl)amino)benzo[d][1,3]dioxol-4-yl)(4-morpholinopiperidin-1-yl)methanone], the remaining binding at 1 µM at panel of 468 kinases [1] came out at 99%; on panel of 468 kinases [2], 91%; on panel of 468 kinases [3] it was 100%; at panel of 468 kinases [4], 100%; at panel of 468 kinases [5] it was 95%; at panel of 468 kinases [6] it was 40%. Besides, on panel of 468 kinases [7], the remaining binding at 1 µM came to 70%.
